Laboratory results reported in the NIST ThermoML archive (doi:10.1016/j.jct.2006.10.016).
Numbers after ± are expanded uncertainties.

Assay: xn = mol fraction of the nth substance listed
Settings: 101 kPa, Liquid

CCCO [propan-1-ol] + C[S+](C)[O-]
x2 = 0
Settings | mass density [kg/m3] | viscosity [mPa·s]
303.15 K | 795.5 ± 2 | 1.733 ± 0.078
308.15 K | 791.1 ± 2.1 | 1.534 ± 0.07
313.15 K | 787 ± 2.2 | 1.367 ± 0.063
318.15 K | 783.3 ± 2.3 | 1.234 ± 0.058
323.15 K | 779.5 ± 2.4 | 1.1 ± 0.052

CCO [ethanol] + C[S+](C)[O-]
x2 = 0
Settings | mass density [kg/m3] | viscosity [mPa·s]
303.15 K | 783.4 ± 2 | 1.086 ± 0.051
308.15 K | 779 ± 2.1 | 0.9732 ± 0.047
313.15 K | 774.6 ± 2.2 | 0.8596 ± 0.042
318.15 K | 769.8 ± 2.3 | 0.8284 ± 0.041
323.15 K | 766.1 ± 2.4 | 0.7493 ± 0.037

C[S+](C)[O-] [dimethyl sulfoxide] + CCCO
Settings | mass density, 303.15 K [kg/m3] | mass density, 308.15 K [kg/m3] | mass density, 313.15 K [kg/m3] | mass density, 318.15 K [kg/m3] | mass density, 323.15 K [kg/m3] | viscosity, 303.15 K [mPa·s] | viscosity, 308.15 K [mPa·s] | viscosity, 313.15 K [mPa·s] | viscosity, 318.15 K [mPa·s] | viscosity, 323.15 K [mPa·s]
x1 = 0.1003 | 824.3 ± 2.1 | 820.3 ± 2.2 | 816.5 ± 2.3 | 812.7 ± 2.4 | 808.9 ± 2.5 | 1.598 ± 0.072 | 1.436 ± 0.066 | 1.257 ± 0.058 | 1.142 ± 0.054 | 1.034 ± 0.049
x1 = 0.1995 | 853.1 ± 2.2 | 848.6 ± 2.3 | 844.8 ± 2.4 | 840.8 ± 2.5 | 836.8 ± 2.6 | 1.41 ± 0.065 | 1.278 ± 0.059 | 1.163 ± 0.055 | 1.066 ± 0.051 | 0.9724 ± 0.047
x1 = 0.2999 | 881.4 ± 2.3 | 876.6 ± 2.4 | 873.2 ± 2.5 | 868.7 ± 2.6 | 864.8 ± 2.7 | 1.402 ± 0.064 | 1.277 ± 0.059 | 1.173 ± 0.055 | 1.078 ± 0.051 | 0.9878 ± 0.047
x1 = 0.3994 | 910.1 ± 2.4 | 905.3 ± 2.5 | 901.7 ± 2.6 | 897.1 ± 2.7 | 892.9 ± 2.8 | 1.393 ± 0.064 | 1.273 ± 0.059 | 1.17 ± 0.055 | 1.084 ± 0.051 | 0.9964 ± 0.048
x1 = 0.5 | 938.7 ± 2.5 | 933.4 ± 2.6 | 929.7 ± 2.7 | 924.3 ± 2.8 | 919.7 ± 2.9 | 1.425 ± 0.065 | 1.31 ± 0.061 | 1.207 ± 0.056 | 1.11 ± 0.052 | 1.017 ± 0.049
x1 = 0.5995 | 968.1 ± 2.5 | 962.5 ± 2.6 | 958.8 ± 2.8 | 953.2 ± 2.9 | 948.6 ± 3 | 1.492 ± 0.068 | 1.357 ± 0.063 | 1.246 ± 0.058 | 1.148 ± 0.054 | 1.07 ± 0.051
x1 = 0.7002 | 998.2 ± 2.6 | 992.2 ± 2.7 | 988.8 ± 2.9 | 982.3 ± 3 | 977.6 ± 3.1 | 1.532 ± 0.07 | 1.4 ± 0.064 | 1.29 ± 0.06 | 1.201 ± 0.056 | 1.1 ± 0.052
x1 = 0.7998 | 1027.6 ± 2.7 | 1021.6 ± 2.8 | 1017.5 ± 2.9 | 1011 ± 3 | 1006.1 ± 3.1 | 1.593 ± 0.072 | 1.452 ± 0.067 | 1.335 ± 0.062 | 1.247 ± 0.058 | 1.14 ± 0.054
x1 = 0.9004 | 1059.4 ± 2.8 | 1053 ± 2.9 | 1050 ± 3 | 1043 ± 3.1 | 1037.6 ± 3.2 | 1.728 ± 0.078 | 1.629 ± 0.074 | 1.493 ± 0.068 | 1.361 ± 0.063 | 1.219 ± 0.057
x1 = 1 | 1090.7 ± 2.9 | 1084.7 ± 3 | 1082.3 ± 3.2 | 1075.1 ± 3.2 | 1070 ± 3.4 | 1.832 ± 0.082 | 1.67 ± 0.076 | 1.537 ± 0.07 | 1.408 ± 0.065 | 1.289 ± 0.06
